Source: patent US20090018134A1, “Compounds - 945” (AstraZeneca AB, priority 2007, published 2009)

The molecules below were run against T1, mTOR (Homo sapiens, UniProt P42345) (assay: In Vitro mTOR Kinase Assay (Echo), Test (a)(ii)). Conditions: read-out: mTOR Kinase Assay (Echo).
T1 construct: FLAG; made in house
Format: biochemical
Description: (a)(ii) In Vitro mTOR Kinase Assay (Echo)
The assay used AlphaScreen technology (Gray et al., Analytical Biochemistry, 2003, 313: 234-245) to determine the ability of test compounds to inhibit phosphorylation by recombinant mTOR.
A C-terminal truncation of mTOR encompassing amino acid residues 1362 to 2549 of mTOR (EMBL Accession No. L34075) was stably expressed as a FLAG-tagged fusion in HEK293 cells as described by Vilella-Bach et al., […], 1999, 274, 4266-4272. The HEK293 FLAG-tagged mTOR (1362-2549) stable cell line was routinely maintained at 37° C. with 5% CO2 up to a confluency of 70-90% in Dulbecco's modified Eagle's growth medium (DMEM; Invitrogen Limited, Paisley, UK Catalogue No. 41966-029) containing 10% heat-inactivated foetal calf serum (FCS; Sigma, Poole, Dorset, UK, Catalogue No. F0392), 1% L-glutamine (Gibco, Catalogue No. 25030-024) and 2 mg/ml Geneticin (G418 sulfate; Invitrogen Limited, UK Catalogue No. 1013 1-027). Following expression in the mammalian HEK293 cell line, expressed protein was purified using the FLAG epitope tag using standard purification techniques.
Aliquots (120 nl […]) of each compound dilution were acoustically dispensed placed using a Labcyte Echo 550 into a well of a Greiner 384-well low volume (LV) white polystyrene plate (Greiner Bio-one).
These assay solutions were incubated for 2 hours at room temperature.
Each reaction was stopped by the addition of […] of a mixture of EDTA (50 mM), bovine serum albumin (BSA; 0.5 mg/mL) and Tris-HCl pH 7.4 buffer (50 mM) containing p70 S6 Kinase (T389) 1A5 Monoclonal Antibody (Cell Signalling Technology, Catalogue No. 9206B) and AlphaScreen Streptavidin donor and Protein A acceptor beads (200 ng; Perkin Elmer, Catalogue No. 6760002B and 6760137R respectively) were added and the assay plates were left overnight at room temperature in the dark. The resultant signals arising from laser light excitation at 680 nm were read using a Packard Envision instrument.
The phosphorylated biotinylated peptide that is associated with AlphaScreen Streptavidin donor beads forms a complex with the p70 S6 Kinase (T389) 1A5 Monoclonal Antibody that is associated with Alphascreen Protein A acceptor beads. Upon laser light excitation at 680 nm, the donor bead: acceptor bead complex produces a signal that can be measured. Accordingly, the presence of mTOR kinase activity results in an assay signal. In the presence of an mTOR kinase inhibitor, signal strength is reduced.
mTOR enzyme inhibition for a given test compound was expressed as an IC50 value.

T1 sequence (P42345 1362-2549): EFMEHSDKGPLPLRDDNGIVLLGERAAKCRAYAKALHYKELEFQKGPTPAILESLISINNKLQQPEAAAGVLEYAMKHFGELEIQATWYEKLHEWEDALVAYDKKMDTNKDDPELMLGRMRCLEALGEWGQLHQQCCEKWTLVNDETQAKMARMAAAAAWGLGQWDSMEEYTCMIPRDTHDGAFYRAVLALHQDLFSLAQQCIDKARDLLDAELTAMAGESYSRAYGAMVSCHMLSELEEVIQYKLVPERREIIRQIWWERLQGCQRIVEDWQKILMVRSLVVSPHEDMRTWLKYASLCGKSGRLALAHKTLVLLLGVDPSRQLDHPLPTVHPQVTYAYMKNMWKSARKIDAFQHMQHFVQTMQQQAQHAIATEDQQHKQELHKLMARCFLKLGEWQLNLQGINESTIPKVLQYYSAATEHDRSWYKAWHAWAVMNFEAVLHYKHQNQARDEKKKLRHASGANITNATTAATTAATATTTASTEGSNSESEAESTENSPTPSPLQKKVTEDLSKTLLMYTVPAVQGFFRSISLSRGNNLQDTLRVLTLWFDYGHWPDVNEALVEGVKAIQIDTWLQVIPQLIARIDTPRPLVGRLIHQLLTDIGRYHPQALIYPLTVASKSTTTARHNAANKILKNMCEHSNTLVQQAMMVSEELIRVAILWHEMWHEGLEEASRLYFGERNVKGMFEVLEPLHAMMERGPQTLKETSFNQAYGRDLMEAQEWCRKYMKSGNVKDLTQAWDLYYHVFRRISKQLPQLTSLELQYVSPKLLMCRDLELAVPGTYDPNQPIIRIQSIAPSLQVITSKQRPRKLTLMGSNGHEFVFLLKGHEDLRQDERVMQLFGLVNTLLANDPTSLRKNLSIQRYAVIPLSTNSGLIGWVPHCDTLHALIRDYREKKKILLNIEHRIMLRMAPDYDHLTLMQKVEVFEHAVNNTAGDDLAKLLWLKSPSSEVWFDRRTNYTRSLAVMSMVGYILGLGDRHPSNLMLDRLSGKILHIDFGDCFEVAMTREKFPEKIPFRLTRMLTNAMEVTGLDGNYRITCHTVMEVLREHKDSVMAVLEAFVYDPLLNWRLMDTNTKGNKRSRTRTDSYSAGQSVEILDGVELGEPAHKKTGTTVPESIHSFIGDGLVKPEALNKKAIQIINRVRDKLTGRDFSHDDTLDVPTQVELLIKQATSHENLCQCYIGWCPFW

Molecule | IC50 [nM]
C[C@H]1COCCN1c1cc(C2(S(C)(=O)=O)CC2)nc(-c2ccc(NC(=O)NCc3cnn(C)c3)cc2)n1 [Example 2a, 1-[4-[4-[(3S)-3-methylmorpholin-4-yl]-6-(1-methylsulfonylcyclopropyl)pyrimidin-2-yl]phenyl]-3-[(1-methylpyrazol-4-yl)methyl]urea] | 93.2
C[C@H]1COCCN1c1cc(C2(S(C)(=O)=O)CC2)nc(-c2ccc(NC(=O)NCC(C)(C)O)cc2)n1 [Example 2aa, 3-(2-hydroxy-2-methylpropyl)-1-[4-[4-[(3S)-3-methylmorpholin-4-yl]-6-(1-methylsulfonylcyclopropyl)pyrimidin-2-yl]phenyl]urea] | 27.4
C[C@H]1COCCN1c1cc(C2(S(C)(=O)=O)CC2)nc(-c2ccc(NC(=O)NC3COC3)cc2)n1 [Example 2ac, 1-[4-[4-[(3S)-3-methylmorpholin-4-yl]-6-(1-methylsulfonylcyclopropyl)pyrimidin-2-yl]phenyl]-3-(oxetan-3-yl)urea] | 6.41
C[C@H]1COCCN1c1cc(C2(S(C)(=O)=O)CC2)nc(-c2ccc(NC(=O)NCc3ncn[nH]3)cc2)n1 [Example 2ag, 1-[4-[4-[(3S)-3-methylmorpholin-4-yl]-6-(1-methylsulfonylcyclopropyl)pyrimidin-2-yl]phenyl]-3-(2H-1,2,4-triazol-3-ylmethyl)urea] | 14.9
C[C@H]1COCCN1c1cc(C2(S(C)(=O)=O)CC2)nc(-c2ccc(NC(=O)NC3CCC3)cc2)n1 [Example 2c, 3-cyclobutyl-1-[4-[4-[(3S)-3-methylmorpholin-4-yl]-6-(1-methylsulfonylcyclopropyl)pyrimidin-2-yl]phenyl]urea] | 1.21
C[C@H]1COCCN1c1cc(C2(S(C)(=O)=O)CC2)nc(-c2ccc(NC(=O)NCCN(C)C)cc2)n1 [Example 2e, 3-(2-dimethylaminoethyl)-1-[4-[4-[(3S)-3-methylmorpholin-4-yl]-6-(1-methylsulfonylcyclopropyl)pyrimidin-2-yl]phenyl]urea] | 279
C[C@H]1COCCN1c1cc(C2(S(C)(=O)=O)CC2)nc(-c2ccc(NC(=O)NC(C)(C)CO)cc2)n1 [Example 2f, 3-(1-hydroxy-2-methyl-propan-2-yl)-1-[4-[4-[(3S)-3-methylmorpholin-4-yl]-6-(1-methylsulfonylcyclopropyl)pyrimidin-2-yl]phenyl]urea] | 4.33

Results, then the molecule that gave them:

IC50 [nM] | Molecule
2.76 | CCNC(=O)Nc1ccc(-c2nc(N3CCOC[C@@H]3C)cc(C3(S(C)(=O)=O)CC3)n2)cc1 [Example 1, 3-Ethyl-1-[4-[4-[(3S)-3-methylmorpholin-4-yl]-6-(1-methylsulfonylcyclopropyl)pyrimidin-2-yl]phenyl]urea]
2.79 | CNC(=O)Nc1ccc(-c2nc(N3CCOC[C@@H]3C)cc(C3(S(C)(=O)=O)CC3)n2)cc1 [Example 1a]
55.3 | C[C@H]1COCCN1c1cc(C2(S(C)(=O)=O)CC2)nc(-c2ccc(NC(=O)NC3(CO)CC3)cc2)n1 [Example 2ab, 3-[1-(hydroxymethyl)cyclopropyl]-1-[4-[4-[(3S)-3-methylmorpholin-4-yl]-6-(1-methylsulfonylcyclopropyl)pyrimidin-2-yl]phenyl]urea]
0.705 | C[C@H]1COCCN1c1cc(C2(S(C)(=O)=O)CC2)nc(-c2ccc(NC(=O)Nc3ccn(C)n3)cc2)n1 [Example 2ad, 1-[4-[4-[(3S)-3-methylmorpholin-4-yl]-6-(1-methylsulfonylcyclopropyl)pyrimidin-2-yl]phenyl]-3-(1-methylpyrazol-3-yl)urea]
0.72 | C[C@H]1COCCN1c1cc(C2(S(C)(=O)=O)CC2)nc(-c2ccc(NC(=O)Nc3ncns3)cc2)n1 [Example 2ae, 1-[4-[4-[(3S)-3-methylmorpholin-4-yl]-6-(1-methylsulfonylcyclopropyl)pyrimidin-2-yl]phenyl]-3-(1,2,4-thiadiazol-5-yl)urea]
46.2 | C[C@H]1COCCN1c1cc(C2(S(C)(=O)=O)CC2)nc(-c2ccc(NC(=O)NCC#N)cc2)n1 [Example 2af, 3-(cyanomethyl)-1-[4-[4-[(3S)-3-methylmorpholin-4-yl]-6-(1-methylsulfonylcyclopropyl)pyrimidin-2-yl]phenyl]urea]
23.9 | C[C@H]1COCCN1c1cc(C2(S(C)(=O)=O)CC2)nc(-c2ccc(NC(=O)NCc3ncc[nH]3)cc2)n1 [Example 2d, 3-(1H-imidazol-2-ylmethyl)-1-[4-[4-[(3S)-3-methylmorpholin-4-yl]-6-(1-methylsulfonylcyclopropyl)pyrimidin-2-yl]phenyl]urea]
0.137 | C[C@H]1COCCN1c1cc(C2(S(C)(=O)=O)CC2)nc(-c2ccc(NC(=O)Nc3ccon3)cc2)n1 [Example 2g, 1-[4-[4-[(3S)-3-methylmorpholin-4-yl]-6-(1-methylsulfonylcyclopropyl)pyrimidin-2-yl]phenyl]-3-(1,2-oxazol-3-yl)urea]
0.272 | C[C@H]1COCCN1c1cc(C2(S(C)(=O)=O)CC2)nc(-c2ccc(NC(=O)Nc3ccccc3)cc2)n1 [Example 2h, 1-[4-[4-[(3S)-3-methylmorpholin-4-yl]-6-(1-methylsulfonylcyclopropyl)pyrimidin-2-yl]phenyl]-3-phenyl-urea]
2.07 | C[C@H]1COCCN1c1cc(C2(S(C)(=O)=O)CC2)nc(-c2ccc(NC(=O)NCCO)cc2)n1 [Example 2i, 3-(2-hydroxyethyl)-1-[4-[4-[(3S)-3-methylmorpholin-4-yl]-6-(1-methylsulfonylcyclopropyl)pyrimidin-2-yl]phenyl]urea]
12 | CC(C)NC(=O)Nc1ccc(-c2nc(N3CCOC[C@@H]3C)cc(C3(S(C)(=O)=O)CC3)n2)cc1 [Example 2j, 1-[4-[4-[(3S)-3-methylmorpholin-4-yl]-6-(1-methylsulfonylcyclopropyl)pyrimidin-2-yl]phenyl]-3-propan-2-yl-urea]
4.06 | CCCNC(=O)Nc1ccc(-c2nc(N3CCOC[C@@H]3C)cc(C3(S(C)(=O)=O)CC3)n2)cc1 [Example 2k, 1-[4-[4-[(3S)-3-methylmorpholin-4-yl]-6-(1-methylsulfonylcyclopropyl)pyrimidin-2-yl]phenyl]-3-propyl-urea]
11.6 | CC(C)CNC(=O)Nc1ccc(-c2nc(N3CCOC[C@@H]3C)cc(C3(S(C)(=O)=O)CC3)n2)cc1 [Example 2l, 1-[4-[4-[(3S)-3-methylmorpholin-4-yl]-6-(1-methylsulfonylcyclopropyl)pyrimidin-2-yl]phenyl]-3-(2-methylpropyl)urea]
5.89 | C[C@H]1COCCN1c1cc(C2(S(C)(=O)=O)CC2)nc(-c2ccc(NC(=O)NCC3CC3)cc2)n1 [Example 2m, 3-(cyclopropylmethyl)-1-[4-[4-[(3S)-3-methylmorpholin-4-yl]-6-(1-methylsulfonylcyclopropyl)pyrimidin-2-yl]phenyl]urea]

Same assay, conditions: table of enzyme assay Test (a)(ii); read-out: Test (a)(ii) IC50

Molecule | IC50 [nM]
1-[4-[4-[1-(2,4-difluorophenyl)sulfonylcyclopro-pyl]-6-[(3S)-3-methylmorpholin-4-yl]pyrimidin-2-yl]phenyl]-3-(2-hydroxyethyl)urea [Example 57b] | 4.57
3-(2,2-difluoroethyl)-1-[4-[4-[1-(2,4-difluorophenyl)sulfonylcyclopro-pyl]-6-[(3S)-3-methylmorpholin-4-yl]pyrimidin-2-yl]phenyl]urea [Example 57d] | 10
3-(3-hydroxypropyl)-1-[4-[4-[1-(3-hydroxypropylsulfonyl)cyclopro-pyl]-6-[(3S)-3-methylmorpholin-4-yl]pyrimidin-2-yl]phenyl]thiourea [Example 37f] | 120
C[C@H]1COCCN1c1cc(C2(S(C)(=O)=O)CC2)nc(-c2ccc(NC(=O)NC3CCC3)cc2)n1 [Example 2c, 3-cyclobutyl-1-[4-[4-[(3S)-3-methylmorpholin-4-yl]-6-(1-methylsulfonylcyclopropyl)pyrimidin-2-yl]phenyl]urea] | 1.86
C[C@H]1COCCN1c1cc(C2(S(C)(=O)=O)CC2)nc(-c2ccc(NC(=O)Nc3ccon3)cc2)n1 [Example 2g, 1-[4-[4-[(3S)-3-methylmorpholin-4-yl]-6-(1-methylsulfonylcyclopropyl)pyrimidin-2-yl]phenyl]-3-(1,2-oxazol-3-yl)urea] | 0.231
CCCNC(=O)Nc1ccc(-c2nc(N3CCOC[C@@H]3C)cc(C3(S(C)(=O)=O)CC3)n2)cc1 [Example 2k, 1-[4-[4-[(3S)-3-methylmorpholin-4-yl]-6-(1-methylsulfonylcyclopropyl)pyrimidin-2-yl]phenyl]-3-propyl-urea] | 3.81
